Structures can show the parent of a compound that is named as a salt. Where two headings read alike, the source gives them in different places.
Legend:
[1] = Plasma drug concentration cutoffs for treatment adherence; conditions: human, in vivo
Method: (§1) In the patients of Example 1, plasma samples were collected after up to 6 weeks of treatment in the clinical trial (end of treatment visit) and analyzed.
(§2) The selected drug concentration cutoffs approximate the lowest observed concentrations 24 hours after the last dose of the study drug under 100% adherent conditions. The 15 ng/mL threshold at 24 hours after the last dose corresponds to a plasma concentration of about 19 ng/mL at about 12 hours after a dose that is administered after steady state has been achieved (e.g., day 42).

[2] = tested on: treatment-adherent patients with treatment-resistant depression; assay: Analysis of treatment-adherent patients of the Phase 3 trial (Example 2); conditions: both, human, in vivo, 6 weeks
Method: It was discovered in this study that measurement of plasma drug concentrations is a direct method of assessing treatment adherence.
as §1, §2
Other efficacy assessments included Quick Inventory Depressive Symptoms-Self Report (QIDS-SR-16), Hamilton Anxiety Rating Scale, and Cognition and Physical Functioning Questionnaire (CPFQ).
Demographics and baseline characteristics were similar across both treatment groups.

Plasma protein binding = format: in vitro ADME; conditions: plasma
[3] = Pharmacokinetics after administration of the subject combination; conditions: for accumulation ratio at steady state based on AUC0-12 / accumulation ratio at steady state based on Cmax: given as the subject combination; for AUC0-12 of metabolite relative to that of bupropion / Cmax of metabolite relative to peak level of bupropion: after administration of the subject combination; for apparent elimination half-life (metabolites): in vivo
[4] = tested on: patients with treatment resistant depression (TRD); assay: Phase 3 randomized double-blind active controlled trial of DM/BU in treatment resistant depression (Example 1); format: in vivo, human
Description: Inclusion criteria for the open-label period included males or females 18-65 years of age, a history of inadequate response to 1 or 2 prior antidepressant treatments, established by the Antidepressant Treatment Response Questionnaire (ATRQ), and a Hamilton Depression Rating Scale (HAMD-17) total score of ≥18. Inclusion criteria for the double-blind period included inadequate response to 2 or 3 prior antidepressant treatments, including open-label period failure. Exclusion criteria included a history of electroconvulsive therapy, vagus nerve stimulation, transcranial magnetic stimulation or any experimental central nervous system treatment during the current episode or in the past 6 months, schizophrenia, bipolar disorder, obsessive compulsive disorder, psychiatric symptoms secondary to any other general medical condition.
The change in depressive symptoms over time was measured using the Montgomery-Åsberg Depression Rating Scale (MADRS) and the Quick Inventory of Depressive Symptomatology-Self-Rated (QIDS-SR-16). The primary endpoint was the change from baseline in the MADRS after 6 weeks of treatment. The key secondary endpoints were the change from baseline in the MADRS after 1 week of treatment, after 2 weeks of treatment, the average change over entire 6-week double-blind treatment period, and the Sheehan Disability Scale (SDS). Other pre-specified secondary efficacy variables included the Cognitive subscale of the Massachusetts General Hospital Cognitive and Physical Functioning Questionnaire (CPFQ), and the Hamilton Anxiety Scale (HAM-A).

[5] = Solubility of the drug powder in water
plasma protein = assay: Plasma protein binding; format: in vitro ADME; conditions: metabolites of bupropion
[6] = subject combination administered with food

CC(NC(C)(C)C)C(=O)c1cccc(Cl)c1.Cl (racemic) [bupropion, (±)-1-(3-chlorophenyl)-2-[(1,1-dimethylethyl)amino]-1-propanone hydrochloride]
concentration at 24 h [1]: ~10 ng/mL | Blood pressure increased [2]: 0 (0.0%) | Dizziness [2]: 0 (0.0%) | Dry mouth [2]: 3 (2.3%) | Headache [2]: 6 (4.5%) | Nasopharyngitis [2]: 0 (0.0%) | Nausea [2]: 2 (1.5%) | Somnolence [2]: 2 (1.5%) | rate of discontinuation due to adverse events [2]: 0.8% | fraction unbound (Plasma protein binding): 0.16 | accumulation ratio at steady state based on AUC0-12 [3]: 1.5 | accumulation ratio at steady state based on Cmax [3]: 1.1 | Tmax ([3]; human, plasma, oral): ~2 h | increase of AUC0-12 with food [3, 6]: 6% | increase of Cmax with food [3, 6]: 3% | rate of remission from depression (QIDS-SR-16≤5) at Week 6 ([4]; % of patients, p=0.012): 8.2% | rate of discontinuation due to adverse events ([4]; both, human, in vivo, 6 weeks): 1.9% | MADRS mean reduction averaged over the entire 6-week treatment period ([4]; key secondary endpoint, DM/BU n=154, bupropion n=155, p=0.031): 6.7 | MADRS mean reduction at Week 1 ([4]; key secondary endpoint, p=0.02): 3.6 | MADRS mean reduction at Week 2 ([4]; key secondary endpoint, p=0.035): 6.1 | QIDS-SR-16 mean reduction averaged over the entire 6-week treatment period ([4]; p=0.013): 2.3 | MADRS mean reduction at Week 6 ([4]; primary endpoint, p=0.117, did not reach statistical significance): 9.4 | solubility in water [5]: highly soluble in water

COc1ccc2c(c1)[C@]13CCCC[C@@H]1[C@H](C2)N(C)CC3 [dextromethorphan, morphinan, 3-methoxy-17-methyl-, (9α, 13α, 14α), hydrobromide monohydrate]
concentration at 12 h ([1]; dose administered after steady state (e.g., day 42), read-out: corresponding plasma concentration at about 12 hours after a dose): ~19 ng/mL | concentration at 24 h ([1]; under 100% adherent conditions, read-out: plasma concentration cutoff approximating the lowest observed concentration 24 hours after the last dose): ~15 ng/mL | increase of mean elimination half-life as compared to dextromethorphan given without bupropion ([3]; following 8 days of the subject combination, extensive metabolizers): approximately 3 fold | accumulation ratio at steady state based on AUC0-12 [3]: about 32 | accumulation ratio at steady state based on Cmax [3]: about 20 | change of Cmax with food [3, 6]: unchanged | decrease of AUC0-12 with food [3, 6]: 14% | solubility in water [5]: sparingly soluble in water

CC(NC(C)(C)C)C(O)c1cccc(Cl)c1 (centres unmarked) [erythrohydroxybupropion]
AUC0-12 of metabolite relative to that of bupropion [3]: about 1.2 times | Cmax of metabolite relative to peak level of bupropion [3]: approximately equal to | apparent elimination half-life (metabolites) ([3]; human): ~44 h

C[C@H]1NC(C)(C)CO[C@]1(O)c1cccc(Cl)c1 [hydroxybupropion]
AUC0-12 of metabolite relative to that of bupropion [3]: about 19 times | Cmax of metabolite relative to peak level of bupropion [3]: approximately 14 times | apparent elimination half-life (metabolites) ([3]; human): approximately 35 hours

C[C@H](NC(C)(C)C)[C@@H](O)c1cccc(Cl)c1 [threohydroxybupropion]
extent of protein binding compared with bupropion (plasma protein): about half that seen with bupropion | AUC0-12 of metabolite relative to that of bupropion [3]: about 7 times | Cmax of metabolite relative to peak level of bupropion [3]: about 5 times | apparent elimination half-life (metabolites) ([3]; human): ~33 h

Reference: patent US20240165104A1, “TREATMENT OF DEPRESSION” (priority 2021, published 2024)
